Source: ChEMBL document CHEMBL4651402, “Screening of ~5500 FDA-approved drugs and clinical candidates for anti-SARS-CoV-2 activity” (2021)

Tested on: SARS-CoV-2
Assay: microbe, parasite or virus in culture
Conditions: Severe acute respiratory syndrome coronavirus 2, Vero C1008, 48 h

Structure (SMILES): CN1C(=O)CN=C(c2ccccc2F)c2cc(Cl)ccc21 [FLUDIAZEPAM]
- IC50: > 20 µM
- IC50 (read-out: pIC50 (converted)): > 20 µM

Structure (SMILES): Cc1nnc(SCC2=C(C(=O)O)N3C(=O)[C@@H](NC(=O)Cn4cnnn4)[C@H]3SC2)s1 [CEFAZOLIN]
- IC50: > 20 µM
- IC50 (read-out: pIC50 (converted)): > 20 µM

Structure (SMILES): c1ccc([C@@H]2CN3CCSC3=N2)cc1 [DEXAMISOLE]
- IC50: > 20 µM
- IC50 (read-out: pIC50 (converted)): > 20 µM

Structure (SMILES): O=P(O)(O)C(O)(Cc1cccnc1)P(=O)(O)O [RISEDRONIC ACID]
- IC50: > 20 µM
- IC50 (read-out: pIC50 (converted)): > 20 µM

Structure (SMILES): CC(C)N(C(=O)CN1C(=O)[C@@H](NC(=O)Nc2cccc(C(=O)O)c2)C(=O)N(c2ccccc2)c2ccccc21)c1ccccc1
- IC50: > 20 µM
- IC50 (read-out: pIC50 (converted)): > 20 µM

Structure (SMILES): Cc1ccc(S(N)(=O)=O)cc1 [P-TOLUENESULFONAMIDE]
- IC50: > 20 µM
- IC50 (read-out: pIC50 (converted)): > 20 µM

Structure (SMILES): CC12CCC(CC1)C(C)(C)O2 [EUCALYPTOL]
- IC50: > 20 µM
- IC50 (read-out: pIC50 (converted)): > 20 µM

Structure (SMILES): COc1cc2c(cc1O)[C@@H]1Cc3ccc(OC)c(O)c3CN1CC2 [SCOULERINE]
- IC50: > 20 µM
- IC50 (read-out: pIC50 (converted)): > 20 µM

Structure (SMILES): NS(=O)(=O)c1cc(C(=O)O)cc(N2CCCC2)c1Oc1ccccc1 [PIRETANIDE]
- IC50: > 20 µM
- IC50 (read-out: pIC50 (converted)): > 20 µM

Structure (SMILES): Cc1cc(CC(=O)O)c(C)n1-c1ccc(Cl)cc1 [CLOPIRAC]
- IC50: > 20 µM
- IC50 (read-out: pIC50 (converted)): > 20 µM

Structure (SMILES): C[C@]12CC[C@H](O)CC1CC[C@@H]1[C@@H]2CC[C@]2(C)C(=O)CC[C@@H]12 (stereo partly specified)
- IC50: > 20 µM
- IC50 (read-out: pIC50 (converted)): > 20 µM

Structure (SMILES): CCN(CC)CCOC(=O)C(Cc1cccc2ccccc12)CC1CCCO1 (stereo unspecified) [NAFRONYL]
- IC50: > 20 µM
- IC50 (read-out: pIC50 (converted)): > 20 µM

Structure (SMILES): NC(CC(=O)NO)C(=O)O (stereo unspecified)
- IC50: > 20 µM
- IC50 (read-out: pIC50 (converted)): > 20 µM

Structure (SMILES): CCCCc1cc(OC)c2ccccc2c1OC(C)=O [BUNAPROLAST]
- IC50: > 20 µM
- IC50 (read-out: pIC50 (converted)): > 20 µM

Structure (SMILES): Cc1cc(OC(=O)c2c(C)cc(O)cc2O)cc(O)c1C(=O)O [LECANORIC ACID]
- IC50: > 20 µM
- IC50 (read-out: pIC50 (converted)): > 20 µM

Structure (SMILES): CC(C)/N=c1\cc2n(-c3ccc(Cl)cc3)c3ccccc3nc-2cc1Nc1ccc(Cl)cc1 [CLOFAZIMINE]
- IC50: > 20 µM
- IC50 (read-out: pIC50 (converted)): > 20 µM

Structure (SMILES): c1ccc2c(c1)[nH]c1cnccc12 [NORHARMANE]
- IC50: > 20 µM
- IC50 (read-out: pIC50 (converted)): > 20 µM

Structure (SMILES): C[C@@H](N)Cc1ccccc1 [LEVAMFETAMINE]
- IC50: > 20 µM
- IC50 (read-out: pIC50 (converted)): > 20 µM

Structure (SMILES): CC1=CC(=O)C2=C(C)CCC3[C@H](C)C(=O)O[C@@H]3[C@@H]12 (stereo partly specified)
- IC50: > 20 µM
- IC50 (read-out: pIC50 (converted)): > 20 µM

Structure (SMILES): O=C1OCCN1/N=C\c1ccc([N+](=O)[O-])o1
- IC50: > 20 µM
- IC50 (read-out: pIC50 (converted)): > 20 µM

Structure (SMILES): C=CC(=O)N1CCC([C@@H]2CCNc3c(C(N)=O)c(-c4ccc(Oc5ccccc5)cc4)nn32)CC1 [ZANUBRUTINIB]
- IC50: > 20 µM
- IC50 (read-out: pIC50 (converted)): > 20 µM

Structure (SMILES): CCC(C(=O)OCCOCCN(CC)CC)c1ccccc1 (stereo unspecified) [BUTAMIRATE]
- IC50: > 20 µM
- IC50 (read-out: pIC50 (converted)): > 20 µM

Structure (SMILES): CCN(CC)CCNC(=O)c1cc(Cl)c(N)cc1OC [METOCLOPRAMIDE]
- IC50: > 20 µM
- IC50 (read-out: pIC50 (converted)): > 20 µM

Structure (SMILES): Nc1ccn([C@@H]2O[C@H](CO)[C@@H](O)C2(F)F)c(=O)n1 [GEMCITABINE]
- IC50: > 20 µM
- IC50 (read-out: pIC50 (converted)): > 20 µM

Structure (SMILES): Cc1c(OCC(F)(F)F)ccnc1C[S+]([O-])c1nc2ccccc2[nH]1 (stereo unspecified) [LANSOPRAZOLE]
- IC50: > 20 µM
- IC50 (read-out: pIC50 (converted)): > 20 µM

Structure (SMILES): Clc1ccc(C(c2ccccc2Cl)C(Cl)Cl)cc1 (stereo unspecified) [MITOTANE]
- IC50: > 20 µM
- IC50 (read-out: pIC50 (converted)): > 20 µM

Structure (SMILES): CN[C@@H]1[C@H](O[C@H]2[C@H](O[C@@H]3[C@@H](O)[C@H](O)[C@@H](NC(=N)N)[C@H](O)[C@H]3NC(=N)N)O[C@@H](C)[C@]2(O)CO)O[C@@H](CO)[C@H](O)[C@H]1O
- IC50: > 20 µM
- IC50 (read-out: pIC50 (converted)): > 20 µM

Structure (SMILES): CCOC(=O)[C@H](C)C[C@@H](C)C(=O)N1c2ccccc2C[C@H]1C(=O)O [PENTOPRIL]
- IC50: > 20 µM
- IC50 (read-out: pIC50 (converted)): > 20 µM

Structure (SMILES): CCCNC(C)(C)COC(=O)c1ccccc1 [MEPRYLCAINE]
- IC50: > 20 µM
- IC50 (read-out: pIC50 (converted)): > 20 µM

Structure (SMILES): CC1CC(OC(=O)c2ccccc2)CC(C)(C)N1 (stereo unspecified)
- IC50: > 20 µM
- IC50 (read-out: pIC50 (converted)): > 20 µM

Structure (SMILES): O=c1c2ccccc2nc2n1CCCC2
- IC50: > 20 µM
- IC50 (read-out: pIC50 (converted)): > 20 µM

Structure (SMILES): Oc1ccc([C@H]2COc3cc(O)ccc3C2)cc1 [AUS-131]
- IC50: > 20 µM
- IC50 (read-out: pIC50 (converted)): > 20 µM

Structure (SMILES): C[C@H](CCc1ccccc1)NC[C@H](O)c1ccc(O)c(C(N)=O)c1 [DILEVALOL]
- IC50: > 20 µM
- IC50 (read-out: pIC50 (converted)): > 20 µM

Structure (SMILES): O=C1NC(=O)[C@H](c2cn3c4c(cccc24)CCC3)[C@H]1c1c[nH]c2ccccc12
- IC50: > 20 µM
- IC50 (read-out: pIC50 (converted)): > 20 µM

Structure (SMILES): CC12C=CC(=O)C=C1C(F)CC1C2C(O)CC2(C)C1CCC2(O)C(=O)CO (stereo unspecified)
- IC50: > 20 µM
- IC50 (read-out: pIC50 (converted)): > 20 µM

Structure (SMILES): NC(=O)NC(CC(=O)O)C(=O)O (stereo unspecified)
- IC50: > 20 µM
- IC50 (read-out: pIC50 (converted)): > 20 µM

Structure (SMILES): Cc1ccc2c(=O)c3cccc(CC(=O)O)c3oc2c1C [VADIMEZAN]
- IC50: > 20 µM
- IC50 (read-out: pIC50 (converted)): > 20 µM

Structure (SMILES): CCC[N+]12C3C[C@@H]([C@H](CC)[C@H]1O)[C@H]1[C@H](O)[C@]4(C[C@@H]12)c1ccccc1N(C)[C@@H]34
- IC50: > 20 µM
- IC50 (read-out: pIC50 (converted)): > 20 µM
